biological target: T1, N-terminally GST-tagged human full length recombinant Mps-1 kinase (Homo sapiens, UniProt P33981); test: Mps-1 kinase assay (TR-FRET); format: biochemical; conditions: Mps1 IC50 [nM], 10 μM ATP, 1 μM peptide substrate, 60 min at 22° C.
T1 construct: N-terminally GST-tagged human full length recombinant Mps-1 kinase; purchased Invitrogen, Karslruhe, Germany PV4071
T1 sequence (P33981 1-857): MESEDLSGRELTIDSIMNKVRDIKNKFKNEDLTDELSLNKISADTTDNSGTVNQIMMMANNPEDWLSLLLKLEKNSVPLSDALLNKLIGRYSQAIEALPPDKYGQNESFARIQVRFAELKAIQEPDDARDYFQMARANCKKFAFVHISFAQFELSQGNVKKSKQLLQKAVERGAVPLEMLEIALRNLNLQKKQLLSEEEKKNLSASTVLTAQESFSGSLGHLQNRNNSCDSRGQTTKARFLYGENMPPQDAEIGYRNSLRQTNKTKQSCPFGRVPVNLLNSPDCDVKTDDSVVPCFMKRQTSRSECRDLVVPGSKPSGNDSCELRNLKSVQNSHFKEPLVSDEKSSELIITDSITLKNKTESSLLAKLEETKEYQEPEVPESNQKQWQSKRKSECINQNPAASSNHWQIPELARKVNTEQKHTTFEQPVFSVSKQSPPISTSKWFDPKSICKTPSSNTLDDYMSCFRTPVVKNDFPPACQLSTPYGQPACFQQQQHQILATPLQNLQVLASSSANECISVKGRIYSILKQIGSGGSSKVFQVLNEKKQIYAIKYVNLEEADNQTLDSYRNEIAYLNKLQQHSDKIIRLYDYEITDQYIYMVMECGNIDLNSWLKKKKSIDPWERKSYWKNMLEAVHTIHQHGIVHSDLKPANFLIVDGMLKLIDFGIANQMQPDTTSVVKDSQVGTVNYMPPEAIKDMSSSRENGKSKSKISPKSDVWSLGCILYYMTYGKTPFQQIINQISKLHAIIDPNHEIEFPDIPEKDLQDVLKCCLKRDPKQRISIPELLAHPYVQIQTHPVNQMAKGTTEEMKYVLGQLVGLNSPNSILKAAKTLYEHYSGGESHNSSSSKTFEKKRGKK
Outline: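 Inhibition of Mps-1 (N-terminal GST fusion, full length) toward a biotinylated peptide is read as Eu-to-XLent TR-FRET. Enzyme level, around 1 nM final, follows lot activity.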

| IC50 [nM] | SMILES |
| --- | --- |
| 1.2 | COc1c(Oc2cc(NCCC(F)(F)F)c3ncc(-c4ccc(C(=O)NC5CC5)c(C)c4)n3n2)cccc1C(C)C [Example 418, N-cyclopropyl-4-{6-[2-methoxy-3-(propan-2-yl)phenoxy]-8-[(3,3,3-trifluoropropyl)amino]imidazo[1,2-b]pyridazin-3-yl}-2-methylbenzamide] |
| 0.7 | Cc1cc(-c2cnc3c(NCCC(F)(F)F)cc(Oc4cccc(F)c4)nn23)ccc1C(=O)NC(C)C [Example 553, 4-{6-(3-fluorophenoxy)-8-[(3,3,3-trifluoropropyl)amino]imidazo[1,2-b]pyridazin-3-yl}-N-isopropyl-2-methylbenzamide] |
| 4.4 | Cc1cc(-c2cnc3c(NCC(C)(C)O)cc(Nc4ccncc4)nn23)ccc1C(=O)NC1CC1 [Example 365, N-cyclopropyl-4-{8-[(2-hydroxy-2-methylpropyl)amino]-6-(pyridin-4-ylamino)imidazo[1,2-b]pyridazin-3-yl}-2-methylbenzamide] |
| 0.2 | Cc1cc(-c2cnc3c(NCCCS(=O)(=O)O)cc(Oc4cccc(F)c4)nn23)ccc1C(=O)NC1CC1 [Example 547, 3-({3-[4-(cyclopropylcarbamoyl)-3-methylphenyl]-6-(3-fluorophenoxy)imidazo[1,2-b]pyridazin-8-yl}amino)propane-1-sulfonic acid] |
| 3.9 | CC(C)CNc1cc(-c2cccc(O)c2)nn2c(-c3ccc(C(=O)NC4CC4)cc3)cnc12 [Example 140, N-cyclopropyl-4-{6-(3-hydroxyphenyl)-8-[(2-methylpropyl)amino]imidazo[1,2-b]pyridazin-3-yl}benzamide] |
| 0.3 | Cc1cc(-c2cnc3c(NCCC(F)(F)F)cc(Oc4cccc(Cl)c4)nn23)ccc1C(=O)NC1CC1 [Example 266, 4-{6-(3-chlorophenoxy)-8-[(3,3,3-trifluoropropyl)amino]imidazo[1,2-b]pyridazin-3-yl}-N-cyclopropyl-2-methylbenzamide] |
| 0.2 | CNC(=O)N(C)CCCNc1cc(Oc2cccc(F)c2)nn2c(-c3ccc(C(=O)NC4CC4)c(C)c3)cnc12 [Example 503, N-cyclopropyl-4-[6-(3-fluoro-phenoxy)-8-({3-[methyl(methyl-carbamoyl)amino]propyl}amino)imidazo[1,2-b]pyridazin-3-yl]-2-methylbenzamide] |
| 3.3 | COc1ccccc1-c1cc(NCC(C)C)c2ncc(-c3ccc(C(=O)NC4CC4)cc3)n2n1 [Example 129, N-cyclopropyl-4-{6-(2-methoxyphenyl)-8-[(2-methylpropyl)amino]imidazo[1,2-b]pyridazin-3-yl}benamide] |
| 0.1 | Cc1ccc(F)cc1Nc1cc(NCCC(F)(F)F)c2ncc(-c3ccc(C(=O)NC4CC4)c(C)c3)n2n1 [Example 375, N-cyclopropyl-4-{6-[(5-fluoro-2-methylphenyl)amino]-8-[(3,3,3-trifluoropropyl)amino]imidazo[1,2-b]pyridazin-3-yl}-2-methylbenzamide] |
| 0.3 | Cc1cc(-c2cnc3c(NCCC(F)(F)F)cc(Oc4cccc(F)c4)nn23)ccc1C(=O)NCC(F)F [Example 556, N-(2,2-difluoroethyl)-4-{6-(3-fluorophenoxy)-8-[(3,3,3-trifluoropropyl)amino]imidazo[1,2-b]pyridazin-3-yl}-2-methylbenzamide] |
| 0.1 | Cc1cc(-c2cnc3c(NCCC(F)(F)F)cc(Oc4ccc5ncccc5c4)nn23)ccc1C(=O)NC1CC1 [Example 169, N-cyclopropyl-2-methyl-4-{6-(quinolin-6-yloxy)-8-[(3,3,3-trifluoro-propyl)amino]imidazo[1,2-b]pyridazin-3-yl}benzamide] |
| 0.6 | Cc1cc(-c2cnc3c(NCCC(F)(F)F)cc(Nc4cccc(C(C)C)c4)nn23)ccc1C(=O)NC1CC1 [Example 433, N-cyclopropyl-2-methyl-4-(6-{[3-(propan-2-yl)phenyl]amino}-8-[(3,3,3-trifluoropropyl)amino]imidazo[1,2-b]pyridazin-3-yl)benzamide] |
| < 10 | CCNC(=O)c1ccc(-c2cnc3c(NCC4CCOCC4)cc(Oc4ccc(F)c(F)c4)nn23)cc1C [Example 594, 4-{6-(3,4-difluorophenoxy)-8-[(tetrahydro-2H-pyran-4-ylmethyl)amino]imidazo[1,2-b]pyridazin-3-yl}-N-ethyl-2-methylbenzamide] |
| 2.5 | CC(C)CNc1cc(-c2ccc(C(=O)NC(C)C)cc2)nn2c(-c3ccc(C(=O)NC4CC4)cc3)cnc12 [Example 120, 4-{3-[4-(Cyclopropylcarbamoyl)phenyl]-8-[(2-methylpropyl)amino]imidazo[1,2-b]pyridazin-6-yl}-N-(propan-2-yl)benzamide] |
| 13.3 | c1cc(-c2cc(NC[C@H]3CCCO3)c3ncc(-c4ccc(-c5cnc(C6CC6)[nH]5)cc4)n3n2)ccn1 [Example 5, 3-[4-(2-Cyclopropyl-1H-imidazol-5-yl)phenyl]-6-(pyridin-4-yl)-N-[(2R)-tetrahydrofuran-2-ylmethyl]imidazo[1,2-b]pyridazin-8-amine] |
| 3.6 | Cc1cc(-c2cnc3c(NCC(C)(C)O)cc(-c4cccc(CO)c4)nn23)ccc1C(=O)NC1CC1 [Example 153, N-cyclopropyl-4-{6-[3-(hydroxymethyl)phenyl]-8-[(2-hydroxy-2-methylpropyl)amino]imidazo[1,2-b]pyridazin-3-yl}-2-methylbenzamide] |
| 1 | Cc1cccc(Nc2cc(NCC(C)(C)O)c3ncc(-c4ccc(C(=O)NC5CC5)c(C)c4)n3n2)c1 [Example 308, N-cyclopropyl-4-{8-[(2-hydroxy-2-methylpropyl)amino]-6-[(3-methylphenyl)amino]imidazo[1,2-b]pyridazin-3-yl}-2-methylbenzamide] |
| 0.3 | Cc1cc(-c2cnc3c(NCC4CCC(F)(F)CC4)cc(Oc4cccc(F)c4)nn23)ccc1C(=O)NC1CC1 [Example 494, N-cyclopropyl-4-[8-{[(4,4-difluorocyclohexyl)methyl]amino}-6-(3-fluorophenoxy)imidazo[1,2-b]pyridazin-3-yl]-2-methylbenzamide] |
| 0.1 | Cc1cc(-c2cnc3c(NCC4COC4)cc(Oc4cccc(F)c4)nn23)ccc1C(=O)NC1CC1 [Example 495, N-cyclopropyl-4-{6-(3-fluoro-phenoxy)-8-[(oxetan-3-ylmethyl)amino]imidazo[1,2-b]pyridazin-3-yl}-2-methylbenzamide] |
| 0.2 | Cc1ccc(F)cc1Oc1cc(NCCN2CCOCC2)c2ncc(-c3ccc(C(=O)NC4CC4)c(C)c3)n2n1 [Example 537, N-cyclopropyl-4-[6-(5-fluoro-2-methylphenoxy)-8-{[2-(morpholin-4-yl)ethyl]amino}imidazo[1,2-b]pyridazin-3-yl]-2-methylbenzamide] |
| 0.5 | Cc1cc(-c2cnc3c(NC[C@H]4CC[S@@+]([O-])CC4)cc(Oc4cccnc4)nn23)ccc1C(=O)NC1CC1 [Example 296B, N-cyclopropyl-2-methyl-4-[8-({[(cis)-1-oxidotetrahydro-2H-thiopyran-4-yl]methyl}amino)-6-(pyridin-3-yloxy)imidazo[1,2-b]pyridazin-3-yl]benzamide] |
| 0.3 | Cc1ccccc1Oc1cc(NCCC(F)(F)F)c2ncc(-c3ccc(C(=O)NC4CC4)c(C)c3)n2n1 [Example 474, N-cyclopropyl-2-methyl-4-{6-(2-methylphenoxy)-8-[(3,3,3-trifluoro-propyl)amino]imidazo [1,2-b]pyridazin-3-yl} benzamide] |
| 3.6 | Cc1cc(-c2cnc3c(NCC(C)(C)O)cc(SCCC(C)(C)C)nn23)ccc1C(=O)NC1CC1 [Example 217, N-cyclopropyl-4-{6-[(3,3-dimethylbutyl)sulfanyl]-8-[(2-hydroxy-2-methylpropyl)amino]imidazo[1,2-b]pyridazin-3-yl}-2-methylbenzamide] |
| 1 | Cc1cc(-c2cnc3c(NCC(C)(C)O)cc(-c4ccc(F)cc4C)nn23)ccc1C(=O)NC1CC1 [Example 232, N-cyclopropyl-4-{6-(4-fluoro-2-methylphenyl)-8-[(2-hydroxy-2-methylpropyl)amino]imidazo[1,2-b]pyridazin-3-yl}-2-methylbenzamide] |
| 0.4 | COc1ccccc1Nc1cc(NCCC(F)(F)F)c2ncc(-c3ccc(C(=O)NC4CC4)c(C)c3)n2n1 [Example 388, N-cyclopropyl-4-{6-[(2-methoxyphenyl)amino]-8-[(3,3,3-trifluoropropyl)amino]imidazo[1,2-b]pyridazin-3-yl}-2-methylbenzamide] |
| 0.3 | Cc1cc(-c2cnc3c(NCCC(F)(F)F)cc(Oc4ccc(Cl)cc4)nn23)ccc1C(=O)NC1CC1 [Example 267, 4-{6-(4-chlorophenoxy)-8-[(3,3,3-trifluoropropyl)amino]imidazo[1,2-b]pyridazin-3-yl}-N-cyclopropyl-2-methylbenzamide] |

— patent publication US9255100B2 (BAYER INTELLECTUAL PROPERTY GMBH, priority 2010, dated 2016)
